One assay relates to pro-IL-1β. As to the kind of experiment: Expression of pro-IL-1β in BMMs. As to conditions: cells treated with bafilomycin A1 or CA-074 Me. It is filed as cell-based, murine. As to the method:
To induce pro-IL-1β expression, cells were pretreated overnight with 100 ng/ml LPS (Sigma). Inflammasome was induced with […] nigericin (Sigma) for 1 h or with […] Alum (Thermoscientific) for 1 h or with […] silica crystals (MIN-U-SIL-15, US Silica) for 1 h or with […] Amyloid-b peptide (Ab; American Peptide Company) fibrils prepared as described (Moore et al, 2002). […] Starvation and other treatments (except for macrophage priming with LPS done in advance) were carried out concurrently (i.e., initiated at the same time).
For all conditions, cell-free supernatants were assayed by immunoblotting after TCA precipitation for mouse IL-1β p17 (R&D), caspase-1 p10 (Santa Cruz Biotechnology), HMGB1 (Abcam) and Cathepsin B (R&D) or by ELISA for mouse IL-1β (R&D), IL-18 (MBL), and HMGB1 (IBL). Immunofluorescence confocal microscopy was carried out using a Zeiss LSM 510 Meta microscope (laser wavelengths 488, 543, and 633 nm). Antibodies against endogenous proteins IL-1β (Abcam), Sec6 (Shu C Hsu, Rutgers University, NJ, USA), Cathepsin B (R&D), Rab8a (Abcam), GORASP1 (Novus), GORASP2 (ProteinTech Group), GM130 (BD), LC3 (MBL) and GFP (Abcam; for BMMs from GFP-LC3 knock-in transgenic mice) were used for indirect immunofluorescence analysis. […]

Another assay relates to caspase 1 p20. As to the kind of experiment: Caspase-1 accumulation in BMM by Western blot. It is filed as cell-based, murine. As to conditions: Atg5fl/fl LysM-Cre− BMM, EBSS. As to the method:
(A) Confocal microcopy analysis of caspase-1 colocalization relative to LC3 in GFP-LC3 expressing BMM induced for autophagy by starvation (EBSS) in the presence of bafilomycin A1 for 90 minutes. Scale bar, 5 μM; Arrowheads and insets, LC3+ caspase-l+ positive profiles (colocalization). (B) Pearson's colocalization coefficient for caspase-1 vs. LC3 and IL-1α vs. LC3. (C) Caspase-1 accumulation in Atg5^fl/fl LysM-Cre− or Atg5^fl/fl LysM-Cre+ BMM induced for autophagy in EBSS with or without bafilomycin A1 (BafA1) and subjected to Western blot analysis. (D) IL-1α (culture supernatant ELISA) released from Atg5fl/fl LysM-Cre+ and Atg5fl/fl LysM-Cre− BMM incubated overnight with 100 ng/ml LPS and exposed for 1 h to inflammasome agonist silica (250 μg/ml) in EBSS. Data, means±SE, n≧3; **p<0.01 (t test).
Cells were washed with PBS and lysed with RIPA buffer containing protease inhibitor cocktail (Roche). Cells extracts were analyzed by standard immunoblotting techniques with antibodies to ASC (Enzo Life Science, AL177), procaspase-1 and active caspase-1 (P20) (Cell Signaling, 2225), GFP (Abeam), calpain I (Cell Signaling), p62 (Abeam) and actin (Sigma). Proteins were resolved on a 12% SDS-polyacrylamide gels and transferred to nitrocellulose membranes. The membrane was blocked for 1 h in 5% nonfat dried milk in PBS/Tween 20 (0.1%) and probed with primary antibody overnight at 4° C. […]

As for `CO/C1=C\C(C)=C\[C@@H](C)[C@@H](O)[C@@H](C)C/C(C)=C/C=C/[C@H](OC)[C@@H]([C@@H](C)[C@@H](O)[C@H](C)[C@@]2(O)C[C@@H](O)[C@H](C)[C@@H](C(C)C)O2)OC1=O` [bafilomycin A1], the “expression of pro-IL-1β” value with pro-IL-1β is on record as “No differences”. Further, in the assay on caspase 1 p20, the “levels of caspase 1 p20” value is given as “abnormally higher levels”.

The values are drawn from patent US9572820B2, “Methods of treating autophagy-associated disorders and related pharmaceutical compositions, diagnostics, screening techniques and kits” (priority 2011, dated 2017).
